What was measured:
S1P2-R = S1P2-R (Homo sapiens, UniProt O95136); experiment: S1P2-R selectivity counter screen; format: cell-based; details: at concentrations up to 50 µM
S1P4-R = target: T1, S1P4-R (Homo sapiens, UniProt O95977); experiment: S1P4-R selectivity counter screen; format: cell-based; details: at concentrations up to 50 µM
T1 sequence (O95977 1-384): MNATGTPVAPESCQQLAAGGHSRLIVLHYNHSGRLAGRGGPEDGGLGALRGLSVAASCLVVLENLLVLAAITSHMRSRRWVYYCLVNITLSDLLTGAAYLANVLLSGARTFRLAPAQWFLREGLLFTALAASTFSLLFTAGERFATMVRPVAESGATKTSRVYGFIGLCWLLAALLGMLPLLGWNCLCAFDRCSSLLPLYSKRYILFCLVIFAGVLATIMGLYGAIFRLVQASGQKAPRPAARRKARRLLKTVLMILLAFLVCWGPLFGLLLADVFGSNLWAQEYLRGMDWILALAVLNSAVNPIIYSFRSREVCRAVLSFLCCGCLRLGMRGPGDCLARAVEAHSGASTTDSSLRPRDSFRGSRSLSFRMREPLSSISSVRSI

S1P3-R [1] = target: T2, S1P3-R (Homo sapiens, UniProt Q99500); experiment: S1P3-R agonist assay, CHO NFAT-BLA reporter; format: cell-based; details: for loss in potency for the S1P3-R relative to hit 1a: less potent than 1a; for selectivity against S1P1,2,4,5-R subtypes (in words): S1P3-R agonist versus remaining subtypes; for loss of potency at S1P3-R relative to 5f: less potent than 5f
T2 sequence (Q99500 whole entry): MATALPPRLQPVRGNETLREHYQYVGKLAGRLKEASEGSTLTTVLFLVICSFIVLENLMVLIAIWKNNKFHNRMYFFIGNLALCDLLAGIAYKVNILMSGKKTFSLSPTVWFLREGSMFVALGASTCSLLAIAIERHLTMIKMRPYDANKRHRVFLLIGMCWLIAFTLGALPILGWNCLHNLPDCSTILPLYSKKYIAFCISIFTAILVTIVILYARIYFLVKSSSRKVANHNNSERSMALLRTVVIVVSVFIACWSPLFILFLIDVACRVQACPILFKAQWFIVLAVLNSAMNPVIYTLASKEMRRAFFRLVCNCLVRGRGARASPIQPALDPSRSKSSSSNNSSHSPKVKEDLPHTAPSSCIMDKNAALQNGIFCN

S1P1-R = S1P1-R (Homo sapiens, UniProt P21453); experiment: S1P1-R agonist assay; format: cell-based
Sequence of S1P1-R (P21453 whole entry): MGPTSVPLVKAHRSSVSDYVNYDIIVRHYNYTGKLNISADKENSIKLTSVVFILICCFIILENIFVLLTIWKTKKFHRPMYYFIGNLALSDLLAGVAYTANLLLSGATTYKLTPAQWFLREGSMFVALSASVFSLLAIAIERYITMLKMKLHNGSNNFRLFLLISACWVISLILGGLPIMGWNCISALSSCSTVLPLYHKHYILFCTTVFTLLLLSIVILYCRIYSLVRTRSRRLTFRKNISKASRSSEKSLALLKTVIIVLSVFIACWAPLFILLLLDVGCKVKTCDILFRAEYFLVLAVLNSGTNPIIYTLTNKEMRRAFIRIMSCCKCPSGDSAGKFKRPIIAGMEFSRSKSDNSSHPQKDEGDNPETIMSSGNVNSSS

[2] = test system: Ricerca panel of off target proteins including GPCRs, enzymes and ion channels; experiment: Ricerca panel of off target proteins; details: at 30 µM; targets other than those singled out
sodium channel site two = experiment: Ricerca panel: sodium channel site two; format: binding; details: 30 µM; borderline inhibition
S1P3-R [3] = target: T2, S1P3-R; experiment: [33P]S1P competitive binding experiment in S1P3 jump-in CHO cells; details: 0.1 nM [33P]S1P; competitor 0.001 nM to 10 µM; 4 °C, 30 min

Sequence of S1P2-R (O95136 whole entry): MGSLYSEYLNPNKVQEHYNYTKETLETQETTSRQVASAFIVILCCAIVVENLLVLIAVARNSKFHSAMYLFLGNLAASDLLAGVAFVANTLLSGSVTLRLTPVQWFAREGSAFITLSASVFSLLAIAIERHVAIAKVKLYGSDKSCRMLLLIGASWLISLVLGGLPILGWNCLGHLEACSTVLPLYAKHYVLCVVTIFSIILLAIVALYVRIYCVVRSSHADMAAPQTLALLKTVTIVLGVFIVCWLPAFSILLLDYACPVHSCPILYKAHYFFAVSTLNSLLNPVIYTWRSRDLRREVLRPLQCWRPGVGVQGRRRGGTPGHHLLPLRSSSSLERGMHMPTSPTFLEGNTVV

CCCc1cc(C(=O)N(C2CCCCC2)C2CCCCC2)no1 [Compd 1a, N,N-dicyclohexyl-5-propylisoxazole-3-carboxamide]
agonist activity at S1P2-R (S1P2-R): no agonist activity
agonist activity at S1P4-R (S1P4-R): no agonist activity

CCCc1cc(C(=O)N(C2CCCCC2)C2CCCC2)no1 [Compd 1b]
loss in potency for the S1P3-R relative to hit 1a (S1P3-R [1]): 18 fold
loss in potency for the S1P1-R relative to hit 1a (S1P1-R; less potent than 1a): three-fold

CCCc1cc(C(=O)NC2CCCCC2)no1 [Compd 1c]
activity at S1P3-R (in words) (S1P3-R [1]): complete loss of potency
activity at S1P1-R (in words) (S1P1-R): complete loss of potency

CCCc1cc(C(=O)N(c2ccccc2)C2CCCCC2)no1 [Compd 1d]
activity at S1P3-R (in words) (S1P3-R [1]): complete loss of potency
activity at S1P1-R (in words) (S1P1-R): complete loss of potency

CC(C)Cc1cc(C(=O)N(C2CCCCC2)C2CCCCC2)no1 [Compd 5a]
loss in potency for the S1P3-R relative to hit 1a (S1P3-R [1]): three-fold
less selective against the S1P1-R than the hit (S1P1-R; S1P3-R over S1P1-R, relative to 1a): four-fold

CC(C)c1cc(C(=O)N(C2CCCCC2)C2CCCCC2)no1 [Compd 5b]
loss in potency for the S1P3-R relative to hit 1a (S1P3-R [1]): two-fold

Cc1cc(C(=O)N(C2CCCCC2)C2CCCCC2)no1 [Compd 5c]
loss in potency for the S1P3-R relative to hit 1a (S1P3-R [1]): 15 fold

O=C(c1cc(C2CCCCC2)on1)N(C1CCCCC1)C1CCCCC1 [Compd 5d]
activity at S1P1-R (in words) (S1P1-R): inactive

O=C(c1cc(C2CCCC2)on1)N(C1CCCCC1)C1CCCCC1 [Compd 5e]
activity at S1P1-R (in words) (S1P1-R): inactive

O=C(c1cc(C2CC2)on1)N(C1CCCCC1)C1CCCCC1 [Compd 5f, N,N-dicyclohexyl-5-cyclopropylisoxazole-3-carboxamide]
selectivity against S1P1,2,4,5-R subtypes (in words) (S1P3-R [1]): exquisitely selective
more potent than the hit at S1P3-R (S1P3-R [1]; relative to 1a): four-fold
stimulation/inhibition of panel targets [2]: < 50%
inhibition of sodium channel site two (sodium channel site two): ≥ 50%
competition with [33P]S1P for the S1P3-R binding pocket (S1P3-R [3]): does not compete

COc1ccc(-c2cc(C(=O)N(C3CCCCC3)C3CCCCC3)no2)cc1 [Compd 5h]
selectivity against the S1P1-R (S1P1-R; S1P3-R over S1P1-R): less than three-fold

CCOc1ccc(-c2cc(C(=O)N(C3CCCCC3)C3CCCCC3)no2)cc1OCC [Compd 5i]
loss in potency for the S1P3-R relative to hit 1a (S1P3-R [1]): 18 fold

O=C(NC1CCCCC1)c1cc(C2CC2)on1 [Compd 7a]
activity at S1P3-R (in words) (S1P3-R [1]): complete loss of activity

O=C(c1cc(C2CC2)on1)N(C1CCCCC1)C1CCCC1 [Compd 7b]
loss of potency at S1P3-R relative to 5f (S1P3-R [1]): 16 fold

O=C(c1cc(C2CC2)on1)N(C1CCCCC1)C1CCOCC1 [Compd 7c]
loss of potency at S1P3-R relative to 5f (S1P3-R [1]): 33 fold

O=C(c1cc(C2CC2)on1)N(CC1CCCCC1)C1CCCCC1 [Compd 7d]
loss of potency at S1P3-R relative to 5f (S1P3-R [1]): 32 fold

CC1CCCCC1N(C(=O)c1cc(C2CC2)on1)C1CCCCC1 (centres unmarked) [Compd 7e]
selectivity against S1P1,2,4,5-R subtypes (in words) (S1P3-R [1]): exquisitely selective
loss of potency at S1P3-R relative to 5f (S1P3-R [1]): three-fold

CC1CCCCC1N(C(=O)c1cc(C2CC2)on1)C1CCCCC1C (centres unmarked) [Compd 7f]
selectivity against S1P1,2,4,5-R subtypes (in words) (S1P3-R [1]): exquisitely selective
loss of potency at S1P3-R relative to 5f (S1P3-R [1]): two-fold

CC1CCCCC1N(C(=O)c1cc(C2CC2)on1)C1CCCCCC1 (centres unmarked) [Compd 7g]
less potent than 7e at S1P3-R (S1P3-R [1]; relative to 7e): almost two-fold

O=C(c1cc(C2CC2)on1)N(C1CCCCCC1)C1CCCC1 [Compd 7j]
loss of potency at S1P3-R relative to 5f (S1P3-R [1]): 26 fold

O=C(c1cc(C2CC2)on1)N(Cc1ccccc1)c1ccccc1 [Compd 7k]
activity at S1P3-R (in words) (S1P3-R [1]): drastic loss in potency

O=C(c1cc(C2CC2)on1)N(Cc1ccccc1)c1ccccn1 [Compd 7l]
activity at S1P3-R (in words) (S1P3-R [1]): drastic loss in potency

O=C(c1coc(C2CC2)n1)N(C1CCCCC1)C1CCCCC1 [Compd 9a]
activity at S1P3-R (in words) (S1P3-R [1]): inactive

O=C(c1ccc(C2CC2)o1)N(C1CCCCC1)C1CCCCC1 [Compd 9b]
activity at S1P3-R (in words) (S1P3-R [1]): inactive
activity at S1P1-R (in words) (S1P1-R): micromolar activity

O=C(c1noc2ccccc12)N(C1CCCCC1)C1CCCCC1 [Compd 9c]
activity at S1P3-R (in words) (S1P3-R [1]): inactive

CCCCCCCCCCCCC/C=C/[C@@H](O)[C@@H](N)COP(=O)(O)O [S1P, Sphingosine-1-phosphate, reference compound]
competition with [33P]S1P for the S1P3-R binding pocket (S1P3-R [3]): competes

— paper PMC3963471 (Bioorganic & medicinal chemistry letters, 2013)
